Reference: article PMC12104396, “Comparative in vitro assessment of CYP2C19 inhibition by ilaprazole and conventional proton pump inhibitors using a high throughput fluorometric assay” (Scientific Reports, 2025)
Where “and” joins values, the source holds several entries; their conditions need not be identical. Equal entries are not always repeated.

Tests used:
[1] = Unbound peak plasma concentration (Cmax,u) from literature Cmax; type: in vivo; conditions: unbound peak plasma concentration = literature Cmax x fu 0.01; highest recommended doses
From the text: The Cmax values for Pantoprazole, Rabeprazole, Lansoprazole, and Omeprazole were obtained from reliable sources, primarily the highest recommended doses listed in the FDA drug labels[15]–[19]. However, for Ilaprazole, as no literature data was available, its Cmax was obtained from available pharmacokinetic studies [drawing 4]
Cmax,u = unbound peak plasma concentration, Cmax = Maximum plasma concentration (from literature), fu = fraction unbound in plasma (0.01 as per the guidance for high protein-bound drugs).

CYP2C19 = biological target: T1, CYP2C19 (Homo sapiens, UniProt P33261); assay: High-throughput fluorometric CYP2C19 inhibition assay (Vivid CYP2C19 Blue Screening Kit, EOMCC substrate, endpoint mode); type: biochemical; conditions: for Ki: approximated as IC50,u/2 (Cheng-Prusoff, S much lower than Km), read-out: Ki,u (unbound inhibition constant); for IC50: recombinant human CYP2C19 BACULOSOMES, eight concentrations, duplicate, nonlinear regression
T1 construct: purchased Thermo Scientific P2864
Description: Vivid™ CYP2C19 Blue Screening Kit (Thermo Scientific; Cat. No. P2864).
Vivid® CYP450 2X Reaction Buffer 100 Mm, CYP2C19 BACULOSOMES® Plus Reagent 0.5 nmol (Recombinant human cytochrome P450), 0.5 mL Vivid® Regeneration System (Glucose-6-phosphate and 30U/mL Glucose-6-phosphate dehydrogenase in 100 mM Potassium phosphate), 0.5 mL Vivid® NADP + , Vivid® EOMCC Substrate 0.1 mg, Vivid® Blue Fluorescent Standard 0.1 µmol.
Test compounds: Dissolved in DMSO; diluted to 2.5X in 1X buffer.
Positive control inhibitor (Ticlopidine): Stock in DMSO; 2.5X dilution in 1X buffer.
Master Pre-Mix: P450 BACULOSOMES® (50 µL) + Vivid® Regeneration System (100 µL) in 1X buffer.
Substrate/NADP + Mixture: Reconstituted substrate (0.1 mg in 205 µL acetonitrile); added 50 µL substrate + 30 µL NADP + (100X).
A high-throughput fluorometric assay was conducted using a black 96-well microplate. Fluorescence measurements were recorded on a BioTek Synergy H1 multimode microplate reader (Agilent, US) with the appropriate excitation/emission wavelength. The assay followed the protocol provided by Life Technologies, USA. Test compounds were evaluated based on their ability to inhibit fluorescent signal production in reactions involving recombinant CYP isozymes and specific substrates. For IC50 determination, two-fold serial dilutions of the test samples were prepared, and the plates were incubated at 37 °C for 20 min. The enzymatic reaction was initiated by adding a mixture of NADP + and the appropriate substrate, followed by a 10-min incubation at 37 °C. The reaction was then stopped by adding 0.5 M Tris buffer (end-point assay). Fluorescence data was collected at eight different concentrations for both inhibitors and test compounds, with all measurements performed in duplicate.
Fluorescence data were collected after the incubation period, to calculate the percentage inhibition using the following formula: [drawing 1]
X = Fluorescence intensity of test compound (PPIs), A = Fluorescence intensity of solvent control (Fluorescence standard), B = Fluorescence intensity of the positive inhibitor (Ticlopidine).
IC50 values for CYP2C19 (the concentration required to inhibit 50% of CYP2C19 activity) inhibition were calculated using nonlinear regression analysis in GraphPad Prism 9 software.
IC₅₀,u (unbound IC₅₀) was calculated using the formula: [drawing 2] fu, inc = Fraction unbound in the incubation system (0.02, as per regulatory assumptions for highly protein-bound drugs).
The unbound inhibition constant (Ki,u) was determined using the Cheng-Prusoff equation: [drawing 3]
S = Substrate concentration used in the assay, IC₅₀,u = unbound half-maximal inhibitory concentration, Km = Michaelis constant for the substrate.
Fluorometric assay is the most commonly used method to identify the CYP inhibition of compounds in early drug discovery due to its sensitivity, speed, low cost, and ease of use. This method helps to ensure the drug interaction potential of the test compound on the important CYP isoforms such as CYP2C19. Inhibitor potency was quantified by determining IC50 values, which in turn was carried out using fixed substrate and inhibitor concentrations. Ilaprazole, Conventional PPIs, and Positive Control (Ticlopidine) were assayed between concentrations ranging from 0.8 to 6.4 μg/mL (Eight Different Concentration). All samples were assayed in duplicate as per the experimental condition (Table 1), the endpoint mode was selected to analyze the percentage inhibition, and IC50 values were calculated.

T1 sequence (P33261 whole entry): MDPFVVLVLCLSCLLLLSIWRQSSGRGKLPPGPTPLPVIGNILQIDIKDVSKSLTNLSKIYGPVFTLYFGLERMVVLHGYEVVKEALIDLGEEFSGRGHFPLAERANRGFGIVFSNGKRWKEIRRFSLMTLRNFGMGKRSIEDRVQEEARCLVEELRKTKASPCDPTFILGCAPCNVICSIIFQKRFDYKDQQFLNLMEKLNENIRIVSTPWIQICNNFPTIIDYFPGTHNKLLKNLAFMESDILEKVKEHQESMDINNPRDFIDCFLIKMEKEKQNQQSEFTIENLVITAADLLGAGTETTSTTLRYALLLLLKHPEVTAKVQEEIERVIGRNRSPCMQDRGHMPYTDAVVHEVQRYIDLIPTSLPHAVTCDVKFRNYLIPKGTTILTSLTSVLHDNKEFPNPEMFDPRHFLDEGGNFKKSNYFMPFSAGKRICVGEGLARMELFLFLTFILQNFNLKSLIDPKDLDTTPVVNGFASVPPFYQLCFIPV

Structure (SMILES) | Cmax,u [1] | Ki (CYP2C19) [µM] | IC50 (CYP2C19) [µM]
COc1ccc2[nH]c([S+]([O-])Cc3ncc(C)c(OC)c3C)nc2c1 (stereo not drawn) [Omeprazole] | 0.0112 µg/mL and 0.0324 µM | 35.2 | 1.41 ± 0.96
COc1ccnc(C[S+]([O-])c2nc3ccc(OC(F)F)cc3[nH]2)c1OC (stereo not drawn) [Pantoprazole] | 0.025 µg/mL and 0.0652 µM | 88 | 3.52 ± 1.47
COc1ccnc(C[S+]([O-])c2nc3cc(-n4cccc4)ccc3[nH]2)c1C (stereo not drawn) [Ilaprazole] | 0.0045 µg/mL and 0.0123 µM | 166 | 6.62 ± 1.34

Further compounds by falling Ki (CYP2C19), results first:

Cmax,u [1] | Ki (CYP2C19) [µM] | IC50 (CYP2C19) [µM] | Structure (SMILES)
0.0062 µg/mL and 0.0173 µM | 161 | 6.43 ± 1.09 | COCCCOc1ccnc(C[S+]([O-])c2nc3ccccc3[nH]2)c1C (stereo not drawn) [Rabeprazole]
0.0115 µg/mL and 0.0311 µM | 41.3 | 1.65 ± 1.37 | Cc1c(OCC(F)(F)F)ccnc1C[S+]([O-])c1nc2ccccc2[nH]1 (stereo not drawn) [Lansoprazole]
